Measured values as given in patent US8415469B2, “Compounds and methods for kinase modulation, and indications therefor” (Plexxikon Inc., priority 2005, dated 2013).
pIC50: −log10 of the molar value.

Experiments:
Type in all cases: biochemical
Kdr = molecular target: T1, Kdr (Homo sapiens, UniProt P35968); assay: Z'-Lyte FRET kinase assay (Invitrogen), Kdr; conditions: read-out: IC50, activity toward kinase Kdr
T1 construct: purchased Invitrogen (assay run by Invitrogen)

B-Raf = molecular target: T2, B-Raf (Homo sapiens, UniProt P15056); assay: AlphaScreen kinase assay, B-Raf; conditions: read-out: IC50, activity toward kinase B-Raf
T2 construct: purchased Upstate Biotechnology

Kit = molecular target: T3, Kit (Homo sapiens, UniProt P10721); assay: AlphaScreen kinase assay, Kit; conditions: read-out: IC50, activity toward kinase Kit
T3 construct: P1332.N6 BI PTP KIT M552-K948-X COD; His6 (N); made in house; host or cells: E. coli (PTP1B co-expressed)

Btk = molecular target: T4, Btk (Homo sapiens, UniProt Q06187); assay: Z'-Lyte FRET kinase assay (Invitrogen), Btk; conditions: read-out: IC50, activity toward kinase Btk
T4 construct: purchased Invitrogen (assay run by Invitrogen)

EphB2 = molecular target: T5, EphB2 (Homo sapiens, UniProt P29323); assay: Z'-Lyte FRET kinase assay (Invitrogen), EphB2; conditions: read-out: IC50, activity toward kinase EphB2
T5 construct: purchased Invitrogen (assay run by Invitrogen)
T5 sequence (P29323 19-1055): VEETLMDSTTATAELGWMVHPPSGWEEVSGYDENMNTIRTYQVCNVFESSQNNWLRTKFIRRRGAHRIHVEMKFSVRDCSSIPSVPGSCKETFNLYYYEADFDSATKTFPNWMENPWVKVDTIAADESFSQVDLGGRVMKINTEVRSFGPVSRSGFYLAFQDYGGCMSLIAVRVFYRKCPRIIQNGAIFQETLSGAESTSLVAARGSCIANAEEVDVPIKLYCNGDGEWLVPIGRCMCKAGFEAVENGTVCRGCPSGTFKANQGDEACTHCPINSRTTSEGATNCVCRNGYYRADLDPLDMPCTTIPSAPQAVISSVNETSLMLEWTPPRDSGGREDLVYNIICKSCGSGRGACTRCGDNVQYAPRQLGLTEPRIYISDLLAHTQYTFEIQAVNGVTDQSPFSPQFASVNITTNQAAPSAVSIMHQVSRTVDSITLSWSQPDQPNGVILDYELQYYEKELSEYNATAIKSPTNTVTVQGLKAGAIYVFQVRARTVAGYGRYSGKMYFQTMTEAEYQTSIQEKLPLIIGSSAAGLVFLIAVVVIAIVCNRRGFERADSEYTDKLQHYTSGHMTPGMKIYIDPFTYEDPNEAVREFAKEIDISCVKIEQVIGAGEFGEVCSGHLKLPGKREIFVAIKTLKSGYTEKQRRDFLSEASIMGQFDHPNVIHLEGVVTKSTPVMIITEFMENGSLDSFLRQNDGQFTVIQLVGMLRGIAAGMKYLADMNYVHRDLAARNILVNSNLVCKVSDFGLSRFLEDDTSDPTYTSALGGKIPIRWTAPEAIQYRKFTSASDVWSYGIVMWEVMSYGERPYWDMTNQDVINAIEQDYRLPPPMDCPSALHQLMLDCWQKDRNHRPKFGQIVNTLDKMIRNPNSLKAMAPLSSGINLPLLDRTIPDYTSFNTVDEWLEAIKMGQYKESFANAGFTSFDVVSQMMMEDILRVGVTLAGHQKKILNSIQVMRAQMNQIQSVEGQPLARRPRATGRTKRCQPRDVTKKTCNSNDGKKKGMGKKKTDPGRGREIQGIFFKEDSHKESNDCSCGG
Method in brief: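 Serially diluted compound (final 1% DMSO) incubated 1 h at room temperature with kinase, 2 μM FRET peptide and 10 μM ATP in pH 7.5 HEPES buffer. Site-specific protease then cleaves unphosphorylated peptide (1 h); inhibition read as increased coumarin-to-fluorescein emission ratio.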

B-Raf V600E = molecular target: T6, B-Raf V600E (Homo sapiens, UniProt P15056, V600E); assay: AlphaScreen kinase assay, B-Raf V600E; conditions: read-out: IC50, activity toward kinase B-Raf V600E
T6 construct: P4254. pFastBacBD-CDC37 BRAF D437-K722-X, V600E; His6 with pFastBac HT leader (TEV site) (N); made in house; host or cells: Sf9 (baculovirus; chaperone CDC37 co-expressed)
T6 sequence (P15056 with tags, fused parts or gaps V600E): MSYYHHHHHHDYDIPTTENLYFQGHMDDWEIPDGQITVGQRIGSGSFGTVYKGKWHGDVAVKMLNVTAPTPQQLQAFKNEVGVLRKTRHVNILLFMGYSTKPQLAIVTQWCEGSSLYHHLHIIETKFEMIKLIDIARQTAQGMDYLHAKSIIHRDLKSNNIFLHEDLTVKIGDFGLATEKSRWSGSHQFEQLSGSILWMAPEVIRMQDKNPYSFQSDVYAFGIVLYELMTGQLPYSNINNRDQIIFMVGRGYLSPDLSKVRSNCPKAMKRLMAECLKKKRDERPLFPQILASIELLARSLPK

T3 sequence (P10721 with tags, fused parts or gaps): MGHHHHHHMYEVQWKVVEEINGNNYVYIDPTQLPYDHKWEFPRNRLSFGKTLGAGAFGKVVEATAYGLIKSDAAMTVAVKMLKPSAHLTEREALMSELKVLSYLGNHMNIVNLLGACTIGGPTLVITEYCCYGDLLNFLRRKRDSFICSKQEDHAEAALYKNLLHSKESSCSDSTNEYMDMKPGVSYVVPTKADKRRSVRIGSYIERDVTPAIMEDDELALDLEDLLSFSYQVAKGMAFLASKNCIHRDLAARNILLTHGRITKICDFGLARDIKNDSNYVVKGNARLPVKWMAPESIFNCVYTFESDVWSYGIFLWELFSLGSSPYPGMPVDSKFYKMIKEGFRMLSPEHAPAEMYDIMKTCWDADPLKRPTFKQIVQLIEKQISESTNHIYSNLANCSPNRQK
T2 sequence (P15056 whole entry): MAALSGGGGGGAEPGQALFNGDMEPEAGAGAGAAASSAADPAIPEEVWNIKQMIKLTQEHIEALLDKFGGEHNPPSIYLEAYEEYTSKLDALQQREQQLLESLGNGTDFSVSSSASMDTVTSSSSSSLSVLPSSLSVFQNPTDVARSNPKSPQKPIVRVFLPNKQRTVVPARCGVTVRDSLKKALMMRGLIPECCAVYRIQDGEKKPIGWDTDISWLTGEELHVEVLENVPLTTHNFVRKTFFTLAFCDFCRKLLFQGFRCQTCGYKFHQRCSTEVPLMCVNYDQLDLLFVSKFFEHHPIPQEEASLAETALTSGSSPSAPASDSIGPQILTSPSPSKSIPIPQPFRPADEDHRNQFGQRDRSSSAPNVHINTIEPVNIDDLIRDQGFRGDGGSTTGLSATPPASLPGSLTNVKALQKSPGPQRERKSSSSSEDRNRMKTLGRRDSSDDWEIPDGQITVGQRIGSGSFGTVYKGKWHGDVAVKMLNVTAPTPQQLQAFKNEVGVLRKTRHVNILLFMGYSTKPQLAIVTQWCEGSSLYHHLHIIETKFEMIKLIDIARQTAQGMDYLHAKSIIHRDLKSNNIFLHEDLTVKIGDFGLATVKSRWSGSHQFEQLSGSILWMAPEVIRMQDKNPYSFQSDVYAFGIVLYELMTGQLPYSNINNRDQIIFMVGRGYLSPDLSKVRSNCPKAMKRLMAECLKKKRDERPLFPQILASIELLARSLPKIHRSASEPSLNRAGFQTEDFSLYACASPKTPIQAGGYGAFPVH
T4 sequence (Q06187 whole entry): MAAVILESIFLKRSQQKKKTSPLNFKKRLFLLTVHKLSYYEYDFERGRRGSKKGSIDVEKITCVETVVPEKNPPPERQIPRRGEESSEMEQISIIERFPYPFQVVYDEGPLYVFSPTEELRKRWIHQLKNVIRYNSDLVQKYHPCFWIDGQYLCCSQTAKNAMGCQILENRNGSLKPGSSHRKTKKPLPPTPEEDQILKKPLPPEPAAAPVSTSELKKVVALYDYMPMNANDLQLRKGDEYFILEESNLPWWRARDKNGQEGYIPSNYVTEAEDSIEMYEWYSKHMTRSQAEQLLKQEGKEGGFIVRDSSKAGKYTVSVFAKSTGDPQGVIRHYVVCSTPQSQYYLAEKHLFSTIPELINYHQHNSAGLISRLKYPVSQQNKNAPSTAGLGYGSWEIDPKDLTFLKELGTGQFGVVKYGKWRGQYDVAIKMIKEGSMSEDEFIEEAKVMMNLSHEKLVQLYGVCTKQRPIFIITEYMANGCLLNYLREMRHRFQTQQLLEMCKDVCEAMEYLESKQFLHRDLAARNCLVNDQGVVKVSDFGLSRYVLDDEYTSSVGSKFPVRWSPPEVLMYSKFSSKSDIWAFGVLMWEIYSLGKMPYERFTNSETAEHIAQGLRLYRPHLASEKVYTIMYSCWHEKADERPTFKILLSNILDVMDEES
T1 sequence (P35968 20-1356): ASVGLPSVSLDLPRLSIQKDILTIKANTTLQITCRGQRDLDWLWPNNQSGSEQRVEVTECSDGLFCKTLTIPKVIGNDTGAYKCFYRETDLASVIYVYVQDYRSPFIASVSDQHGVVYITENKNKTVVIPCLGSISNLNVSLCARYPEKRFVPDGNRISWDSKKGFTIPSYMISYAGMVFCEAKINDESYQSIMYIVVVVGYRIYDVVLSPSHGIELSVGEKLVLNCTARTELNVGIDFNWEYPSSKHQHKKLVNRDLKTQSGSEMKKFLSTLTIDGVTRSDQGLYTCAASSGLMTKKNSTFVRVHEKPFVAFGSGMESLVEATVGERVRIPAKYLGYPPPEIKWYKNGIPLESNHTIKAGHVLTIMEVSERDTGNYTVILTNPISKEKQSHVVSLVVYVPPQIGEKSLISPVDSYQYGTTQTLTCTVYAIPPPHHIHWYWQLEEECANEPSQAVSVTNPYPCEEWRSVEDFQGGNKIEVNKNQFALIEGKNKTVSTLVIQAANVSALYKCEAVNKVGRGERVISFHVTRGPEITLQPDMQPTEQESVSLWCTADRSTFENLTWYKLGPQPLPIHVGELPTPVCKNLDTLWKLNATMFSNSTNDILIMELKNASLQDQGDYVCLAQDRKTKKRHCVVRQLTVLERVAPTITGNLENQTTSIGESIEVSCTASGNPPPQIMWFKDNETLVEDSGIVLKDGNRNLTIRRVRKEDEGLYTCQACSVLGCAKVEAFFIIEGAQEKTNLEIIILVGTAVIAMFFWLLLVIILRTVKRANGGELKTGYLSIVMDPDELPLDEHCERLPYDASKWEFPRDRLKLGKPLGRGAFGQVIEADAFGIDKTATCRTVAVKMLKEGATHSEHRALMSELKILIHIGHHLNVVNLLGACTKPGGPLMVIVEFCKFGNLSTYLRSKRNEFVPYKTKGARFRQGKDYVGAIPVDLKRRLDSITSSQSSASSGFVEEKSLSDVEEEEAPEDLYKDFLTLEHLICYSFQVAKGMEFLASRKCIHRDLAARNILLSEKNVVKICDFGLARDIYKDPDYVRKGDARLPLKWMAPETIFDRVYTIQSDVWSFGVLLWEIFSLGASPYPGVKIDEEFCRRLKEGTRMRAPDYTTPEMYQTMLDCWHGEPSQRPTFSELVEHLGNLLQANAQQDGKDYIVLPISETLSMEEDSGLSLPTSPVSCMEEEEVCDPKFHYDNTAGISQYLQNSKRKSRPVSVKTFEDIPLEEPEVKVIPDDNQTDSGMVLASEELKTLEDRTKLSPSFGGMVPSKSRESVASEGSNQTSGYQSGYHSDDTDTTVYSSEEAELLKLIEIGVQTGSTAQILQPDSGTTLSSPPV

Row | Structure (SMILES) | pIC50 (Kdr) | pIC50 (B-Raf) | pIC50 (Kit) | pIC50 (Btk) | pIC50 (EphB2) | pIC50 (B-Raf V600E)
1 | Oc1ccc(F)c(C(O)c2c[nH]c3ncc(-c4cccnc4)cc23)c1F (stereo not drawn) [Compound P-0009, 2,4-difluoro-3-[hydroxy-(5-pyridin-3-yl-1H-pyrrolo[2,3-b]pyridin-3-yl)-methyl]-phenol] | ≥ 5.00 | ≥ 5.00 | ≥ 5.00 | ≥ 5.00 | ≥ 5.00 | ≥ 5.00
2 | CCCS(=O)(=O)Nc1ccc(F)c(C(=O)c2c[nH]c3ncc(-c4cccnc4)cc23)c1F [Compound P-0088, Propane-1-sulfonic acid [2,4-difluoro-3-(5-pyridin-3-yl-1H-pyrrolo[2,3-b]pyridine-3-carbonyl)-phenyl]-amide] | ≥ 5.00 | ≥ 5.00 | ≥ 5.00 | ≥ 5.00 | ≥ 5.00 | ≥ 5.00
3 | CCCS(=O)(=O)Nc1ccc(F)c(C(=O)c2c[nH]c3ncccc23)c1F [Compound P-0007, Propane-1-sulfonic acid [2,4-difluoro-3-(1H-pyrrolo[2,3-b]pyridine-3-carbonyl)-phenyl]-amide] | ≥ 5.00 | ≥ 5.00 | ≥ 5.00 | ≥ 5.00 | ≥ 5.00 | ≥ 5.00

Results, then the compound that gave them:

Row | pIC50 (Kdr) | pIC50 (B-Raf) | pIC50 (Kit) | pIC50 (Btk) | pIC50 (EphB2) | pIC50 (B-Raf V600E) | Structure (SMILES)
4 | ≥ 5.00 | ≥ 5.00 | ≥ 5.00 | ≥ 5.00 | ≥ 5.00 | ≥ 5.00 | COc1ccc(F)c(C(=O)c2c[nH]c3ncc(-c4cccnc4)cc23)c1 [Compound P-0090]
5 | ≥ 5.00 | ≥ 5.00 | ≥ 5.00 | ≥ 5.00 | ≥ 5.00 | ≥ 5.00 | Oc1cc(O)cc(Cc2c[nH]c3ncc(-c4ccsc4)cc23)c1 [Compound P-0093]
